Assays:
[1] = system: murine lymphocyte blastogenesis induced by anti-CD3 antibody (splenic cells of Balb/c mice); assay: Lymphocyte blastogenesis test (MTT dye reduction); format: cell-based; conditions: for Inhibition (%): 72 hours
Method: Effect on Lymphocyte Blastogenic Response
The lymphocyte blastogenesis test was performed in microtiter plates with each well containing 1×10^5 splenic cells of Balb/c mice in 0.1 ml RPMI-1640 medium supplemented with 10% fetal bovine serum (FBS), […] 2-mercaptoethanol, penicillin (100 units/ml) and streptomycin (100 μg/ml), to which anti-CD3 antibody (2C11) (1 μg/ml) was added. The cells were incubated at 37° C. in a humidified atmosphere of 5% CO2 for 72 hours. After the culture period, suppressive activities of the test samples in lymphocyte blastogenesis were quantified by an MTT [3-(4,5-dimethylthiazol-2-yl)-2,5-diphenyl-2H-tetrazolium bromide (MTT)] dye reduction assay.
WF27082 B was dissolved in methanol and further diluted in RPMI-1640 medium and added to the culture to give final concentrations of 50 ng/ml or less. FR235220 was dissolved in methanol and further diluted in RPMI-1640 medium and added to the culture to give final concentrations of 500 ng/ml or less. The results are shown in Table 2 and Table 3, respectively.

[2] = system: partially purified human histone deacetylase; assay: Activity of partially purified human histone deacetylase ([3H]acetyl histone assay); format: biochemical; conditions: for Effect on histone deacetylase activity (in words): summary of Table 5
Method: Effect on Activity of Partially Purified Human Histone Deacetylase
The partial purification of human histone deacetylase, the preparation of [^3H] acetyl histones, and the assay for histone deacetylase activity were basically performed according to the method as proposed by Yoshida et al. as follows.
Partial Purification of Human Histone Deacetylase—The human histone deacetylase was partially purified from human T cell leukemia Jurkat cells. Jurkat cells (5×10^8cells) were suspended in 40 ml of the HDA buffer consisting of 15 mM potassium phosphate, pH 7.5, 5% glycerol and 0.2 mM EDTA. After homogenization, nuclei were collected by centrifugation (35,000 ×g, 10 min) and homogenized in 20 ml of the same buffer supplemented with 1 M (NH4)2SO4. The viscous homogenate was sonicated and clarified by centrifugation (35,000 ×g, 10 min), and the deacetylase was precipitated by raising the concentration of (NH4)2SO4 to 3.5 M. The precipitated protein was dissolved in 10 ml of the HDA buffer and dialyzed against 4 liters of the same buffer. The dialyzate was then loaded onto a DEAE-cellulose (Whatman DE52) column (25×85 mm) equilibrated with the same buffer and eluted with a linear gradient (0-0.6 M) of NaCl (300 ml). A single peak fraction of histone deacetylase activity was eluted between 0.3 and 0.4 M NaCl.
Preparation of [^3H] Acetyl Histones—To obtain [^3H]acetyl-labeled histones as the substrate for the histone deacetylase assay, 1×10^8 cells of Jurkat in 20 ml of RPMI-1640 medium supplemented with 10% FBS, penicillin (50 units/ml) and streptomycin (50 μg/ml) were incubated with 300 MBq [^3H] sodium acetate in the presence of […] sodium butyrate for 30 min in 5% CO2-95% air atmosphere at 37° C. in a 75 cm2 flask, harvested into a centrifuge tube (50 ml), collected by centrifugation at 1000 rpm for 10 min, and washed once with phosphate-buffered saline. The washed cells were suspended in 15 ml of ice-cold lysis buffer (10 mM Tris-HCl, 50 mM sodium bisulfite, 1% Triton X-100, 10 mM MgCl2, 8.6% sucrose, pH 6.5). After Dounce homogenization (30 stroke), the nuclei were collected by centrifugation at 1000 rpm for 10 min, washed three times with 15 ml of the lysis buffer, and once with 15 ml of ice-old washing buffer (10 mM Tris-HCl, 13 mM EDTA, pH 7.4) successively. The pellet was suspended in 6 ml of ice-cold water using a mixer, and […] of H2SO4 was added to the suspension to give a concentration of 0.4 N. After incubation at 4° C. for 1 hour, the suspension was centrifuged for 5 min at 15,000 rpm, and the supernatant was taken and mixed with 60 ml of acetone. After overnight incubation at −20° C., the coagulated material was collected by microcentrifugation, air-dried, and stored at […].
Assay for Histone Deacetylase Activity—For the standard assay, 10 μl of [^3H]acetyl-labeled histones was added to 90 μl of the enzyme fraction, and the mixture was incubated at 25° C. for 30 min. The reaction was stopped by addition of 10 μl of HCl. The released [^3H]acetic acid was extracted with 1 ml of ethyl acetate, and 0.9 ml of the solvent layer was taken into 10 ml of toluene scintillation solution for determination of radioactivity.

[3] = Solubility in solvents (physico-chemical properties); format: physicochemical; conditions: solvents in which soluble

SMILES	Inhibition (%) ([1]; 4 ng/ml)	Inhibition (%) ([1]; 8 ng/ml)	Inhibition (%) ([1]; 16 ng/ml)	Inhibition (%) ([1]; 31 ng/ml)	Inhibition (%) ([1]; 63 ng/ml)	Inhibition (%) ([1]; 125 ng/ml)	Inhibition (%) ([1]; 250 ng/ml)	Inhibition (%) ([1]; 500 ng/ml)	Effect on murine lymphocyte blastogenesis (in words) ([1]; summary of Tables 2 and 3)	Inhibition (%) ([2]; 1 ng/ml)	Inhibition (%) ([2]; 10 ng/ml)	Inhibition (%) ([2]; 100 ng/ml)	Inhibition (%) ([2]; 1000 ng/ml)	Effect on histone deacetylase activity (in words) [2]	Solubility: Soluble [3]
CC(O)C(=O)CCCCCC1NC(=O)C2CCCN2C(=O)C(Cc2ccccc2)NC(=O)C(C)(C)NC1=O (centres unmarked) [FR235220]	−23.4%	−1.3%	45.1%	106.0%	125.3%	127.2%	126.0%	126.0%	suppressed murine lymphocyte blastogenesis induced by anti-CD3 antibody in a dose-dependent manner	−13.1%	33.7%	74.6%	94.6%	potently inhibited	–
CCC1(C)NC(=O)C(CCCCCC(=O)C(C)O)NC(=O)C2CCCN2C(=O)C(Cc2ccccc2)NC1=O (centres unmarked) [WF27082 E]	–	–	–	–	–	–	–	–	–	11.1%	57.6%	88.5%	104.9%	potently inhibited	methanol, chloroform, ethyl acetate, dimethyl sulfoxide
CC1CC2C(=O)NC(CCCCCC(=O)C(C)O)C(=O)NC(C)(C)C(=O)NC(Cc3ccccc3)C(=O)N2C1 (centres unmarked) [WF27082 F]	–	–	–	–	–	–	–	–	–	11.4%	36.5%	74.1%	91.7%	potently inhibited	methanol, chloroform, ethyl acetate, dimethyl sulfoxide
